The subject of one assay is LNCaP cells. Briefly: Trypan blue exclusion assay of infected LNCaP cells. It is filed as cell-based, human. Conditions: for effect of inhibitor on EHDV-TAU-LNCaP-induced cell death: Q-VD-OPH 20 μM, Necrostatin-1 75 μM, 45 hours. The method, then:
LNCaP cells were infected (+) or not (−) with EHDV-TAU-LNCaP (0.05 PFU/cell, for 45 hours) and treated (+) or not (−) with Q-VD-OPH (20 μM, for 45 hours during infection, or 20 hours during STS treatment), Necrostatin-1 (75 μM, for 45 hours) or staurosporine (STS, 1 μM, for 20 hours; serves as positive control of apoptosis induction). Graph depicts mean±SE (n=3) of the percentage of cell death under the indicated conditions. *p<0.05; **p<0.005.
LNCaP cells were infected or not with EHDV-TAU-LNCaP (0.05 PFU/cell, for 45 hours) and treated, or not, with IFNα or the indicated EpMs. Graph depicts mean±SE (n=5) of percentage of cell death under the indicated conditions; *p<0.05; ***p<0.0005.
Trypan blue exclusion assay—2×10^5 LNCaP cells/well in a 12-well plate were infected, or not, under the indicated experimental conditions. For each well, detached and attached cells were collected together and mixed with 0.5% trypan blue at a 1:1 ratio. Cells were classified by trypan blue exclusion by light microscopy. Trypan blue (0.5%) was from Beit Haemek Biological Industries, Israel (cat. #03-102-1B).

For the next assay, the system named is LNCaP-JAK1 cells. Briefly: Immunoblot of NS3 in infected LNCaP-JAK1 cells. The settings on record: for effect of treatment on NS3 expression in EHDV-TAU-LNCaP-infected cells: LNCaP-JAK1, Baricitinib 0.5 μM, IFNα 200 U/ml, IFNγ 25 ng/ml, prior to and during infection. (Immunoblotting shows a protein as a band on a membrane.)

For `COC(=O)CC(NC(=O)C(NC(=O)c1ccc2ccccc2n1)C(C)C)C(=O)COc1c(F)cccc1F` (stereo not shown) [Q-VD-OPh, Quinolyl-valyl-O-methylaspartyl-[-2,6-difluorophenoxy]-methyl ketone, reference compound], the “effect of inhibitor on EHDV-TAU-LNCaP-induced cell death” value in the assay with LNCaP cells is listed as “partial reduction”. Besides, in the assay with LNCaP-JAK1 cells (LNCaP-JAK1, Q-VD-OPh 20 μM, IL-6 5 ng/ml), the “effect on NS3 expression in infected, IL-6-treated cells” value is “failed to rescue NS3 expression”.

For the molecule `Nc1ncn([C@H]2C[C@H](O)[C@@H](CO)O2)c(=O)n1` [5AC, 5-Aza-2′-deoxycytidine], the “effect on infection / virus-induced death” value with LNCaP cells (combination of 5AC and IFNα, compared to IFNα or 5AC alone) is “reduced infection to a greater and significant degree”.

As for `O=C(O)[C@H](Cc1c[nH]c2ccccc12)N1C(=O)c2ccccc2C1=O` [RG108, N-phthalyl-L-tryptophan], the “protection from EHDV-TAU-LNCaP-induced cell death” value with LNCaP cells (RG108 alone) is “partial protection”. For the same molecule, the “effect on virus-induced cell death” value in the assay with LNCaP cells (combination of IFN and RG108, relative to untreated infected cells) is given as “reduced it to half”.

Consider IFNα, for which the “effect on EHDV-TAU-LNCaP-induced cell death” value with LNCaP cells (IFN alone) was “minimal reduction”. Further, in the assay on LNCaP-JAK1 cells, the “effect of treatment on NS3 expression in EHDV-TAU-LNCaP-infected cells” value was “abolished NS3 expression”.

As for `CN1C(=O)C(Cc2c[nH]c3ccccc23)NC1=S` (stereo not shown) [Necrostatin-1], the “effect of inhibitor on EHDV-TAU-LNCaP-induced cell death” value with LNCaP cells is given as “partial reduction”.

Take “IL-6: Human IL-6 (PeproTech), pleiotropic cytokine”: the “effect on productive EHDV-TAU-LNCaP infection” value with LNCaP-JAK1 cells (LNCaP-JAK1, IL-6) is “reduce productive EHDV-TAU-LNCaP infection”.

B1: IFNγ: human IFNγ (PeproTech) (protein, UniProt P01579 24-161, looked up)
Interferon gamma: QDPYVKEAENLKKYFNAGHSDVADNGTLFLGILKNWKEESDRKIMQSQIVSFYFKLFKNFKDDQSIQKSVETIKEDMNVKFFNSNKKKRDDFEKLTNYSVTDLNVQRKAIHELIQVMAELSPAAKTGKRKRSQMLFRG
Regarding B1, the “effect of treatment on NS3 expression in EHDV-TAU-LNCaP-infected cells” value with LNCaP-JAK1 cells is reported as “abrogated NS3 production”.
